Values joined by “and” are separate entries in the source; they are usually repeats but may differ in a detail not shown here. Equal entries are not always repeated.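 Protocol summary: plate cells (96-well), add compound at 5 concentrations, incubate 48 h, interpolate endpoints linearly. Abbreviation: GI50, concentration required for 50% inhibition of growth. TGI denotes the concentration required for complete inhibition of growth.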
Assays:
Assay in all cases: NCI tumour cell line growth inhibition, 48 h
[1] = test system: UACC-62 melanoma
[2] = test system: HL-60(TB) leukemia
[3] = test system: M14 melanoma
[4] = test system: HT29 colon
[5] = test system: OVCAR-5 ovarian
[6] = test system: CAKI-1 renal
[7] = test system: EKVX NSCLC
[8] = test system: SK-MEL-5 melanoma
[9] = test system: OVCAR-4 ovarian

Row | Structure (SMILES) | TGI [1] [µM] | TGI [2] [µM] | TGI [3] [µM] | TGI [4] [µM] | TGI [5] [µM] | TGI [6] [µM] | TGI [7] [µM] | TGI [8] [µM] | TGI [9] [µM] | GI50 [1] | GI50 [7] [µM] | GI50 [2] [µM] | GI50 [8] [µM] | GI50 [3] [µM] | GI50 [4] [µM] | GI50 [9] [µM] | GI50 [5] [µM] | GI50 [6]
1 | O=C(C=Nc1ccccc1C(=O)[O-])c1cccs1.O=C(C=Nc1ccccc1C(=O)[O-])c1cccs1.[Zn+2] | 42 | > 100 | > 100 | > 100 | 71.9 | > 100 | – | – | – | – | – | – | – | – | – | – | – | –
2 | CCCCCCCCCCCCCCCCCC[N+](C)(C)Cc1ccc(C[N+](C)(C)CCCCCCCCCCCCCCCCCC)cc1 | 47.6 | – | 49 | 38.6 | 96.7 | 47.7 | 43.1 | 66.6 | > 100 | – | – | – | – | – | – | – | – | –
3 | Cc1c(-c2nnc(-c3cc(Cl)c(Cl)cc3Cl)o2)nnn1-c1ccnc2c(C(F)(F)F)cccc12 | > 100 | > 100 | 70.5 | 42.2 | 94.2 | 94.8 | 73.9 | 32.5 | 65.8 | 26.5 µM | 23.7 | 40.9 | 17.3 | 26.2 | 22.3 | 23.9 | 32.1 | 31.4 µM
4 | CCOC(=O)NC1CC2CCC1(OC)C=C2C (stereo not given) | > 100 | > 100 | > 100 | > 100 | > 100 | > 100 | > 100 | > 100 | > 100 | – | – | – | – | – | – | – | – | –
5 | COC(=O)Cc1cc(=O)n2c([nH]c3ccccc32)c1C#N | – | > 100 | > 100 | > 100 | > 100 | > 100 | > 100 | > 100 | > 100 | – | – | – | – | – | – | – | – | –
6 | C[CH2][Sn]([CH2]C)([O]C(=O)c1ccc(F)cc1)[O][Sn]([CH2]C)([CH2]C)[O]C(=O)c1ccc(F)cc1 | > 100 | > 100 | > 100 | > 100 | > 100 | 24.9 | > 100 | > 100 | > 100 | > 100 µM | > 100 | > 100 | > 100 | > 100 | > 100 | > 100 | > 100 | 12.2 µM
7 | C/C=C/C1=CN2C(=O)c3cc(OC4OC(C)C(NC)C(C)(O)C4O)c(C)c(O)c3N=C[C@@H]2C1 (stereo not given in full) | – | 0.34 | 0.213 | 10.2 | 2.92 | – | – | – | 20.7 | 0.0918 µM and < 0.01 µM | – | 0.0603 | – | 0.0589 | – | – | – | 0.0279 µM and < 0.01 µM
8 | Cc1ccccc1NC(=O)c1ccc([N+](=O)[O-])cc1 | > 100 | > 100 | > 100 | > 100 | > 100 | > 100 | > 100 | > 100 | > 100 | – | – | – | – | – | – | – | – | –
9 | CC1=Nc2ccccc2C12C(c1ccccc1)C(c1ccccc1)C(=O)N1c3ccccc3CC12 (stereo not given) | > 100 | > 100 | > 100 | > 100 | > 100 | > 100 | > 100 | > 100 | > 100 | – | – | – | – | – | – | – | – | –
10 | FC(F)(F)c1nc(-c2ccccc2)oc1Sc1oc(-c2ccccc2)nc1C(F)(F)F | > 100 | > 100 | > 100 | > 100 | > 100 | 65.7 | > 100 | > 100 | 90.2 | – | – | – | – | – | – | – | – | –
11 | CCOC(=O)c1cc(OC(=O)CC)c2c(OC)ccc(OC)c2c1 | > 100 | – | – | – | > 100 | > 100 | > 100 | > 100 | > 100 | – | – | – | – | – | – | – | – | –
12 | CC(CN)[C@@H]1CC[C@]2(CO)CC[C@]3(C)[C@H](CC[C@@H]4[C@@]5(C)CCC(N)C(C)(C)[C@@H]5CC[C@]43C)[C@@H]12 (stereo not given in full) | 3.64 | – | 3.76 | 3.03 | 3.58 | 3.12 | 3.51 | 3.08 | 3.16 | 1.92 µM | 1.73 | – | 1.67 | 1.9 | 1.57 | 1.61 | 1.85 | 1.63 µM
13 | CC(C)c1cccc(C(C)C)c1NC(=O)CCC(=O)NN | > 100 | > 100 | > 100 | > 100 | > 100 | > 100 | > 100 | > 100 | > 100 | – | – | – | – | – | – | – | – | –
14 | O=C(Cc1ccccc1)NS(=O)(=O)c1ccccc1 | > 100 | > 100 | > 100 | > 100 | > 100 | > 100 | > 100 | – | > 100 | – | – | – | – | – | – | – | – | –
15 | c1ccc2c(c1)[nH]c1c2ncc2[nH]c3ccccc3c21 | 3.36 | – | 7.99 | 11.1 | 22.9 | 13.7 | 33.1 | 17.2 | 3.79 | – | – | – | – | – | – | – | – | –

From PubChem BioAssay (NCI)
